Consider 103 molecules from PubChem BioAssay AID1996.

Converted amounts (≈) assume the structure as drawn.

The conditions of this data set: buffer; pH 7.4; 200.0 µM.
In the case of `Cc1cccc(NC(=O)c2nc[nH]c2C(=O)Nc2cccc(C)c2)c1`, the kinetic solubility – broadly, the concentration staying in solution when a stock, usually in DMSO, is diluted into the medium – came out at 0.2 µg/mL (≈ 0.598 µM). `CN1CC(C(=O)Nc2ccc(F)c(Cl)c2)CC1=O` (stereo not drawn) came in with a solubility (kinetic) greater than 40.6 µg/mL. Take `Cc1ccsc1C(=O)OCC(=O)N1CC(C)CC(C)C1` (stereo not drawn): the solubility (kinetic) was greater than 44.3 µg/mL. Molecule `Cc1cc[n+](CC(=O)Nc2cccc(C)c2)cc1.[Cl-]` returned a solubility (kinetic) greater than 41.5 µg/mL.

The molecule `O=C(COC(=O)/C=C/c1ccccc1)NC1CC1` displayed a solubility (kinetic) greater than 36.8 µg/mL.

Regarding `CCC1C(=NO)C(CC)C(c2ccccc2)NC1c1ccccc1` (stereo not drawn), the kinetic solubility amounted to 0.9 µg/mL (≈ 2.79 µM). As for `CCOC(=O)c1c(C)[n+]([O-])c2ccc3c(non3O)c12`, the figure is 8.7 µg/mL (≈ 31.4 µM). As for `O=C(Nc1cccc(F)c1)c1ccc(Cn2cc([N+](=O)[O-])cn2)o1`, the figure is greater than 49.5 µg/mL; as for `CSc1nc(NCC(C)O)c2c3c(sc2n1)CN(C)CC3` (stereo not drawn), 44.7 µg/mL (≈ 138 µM); as for `CCOCCCNCc1cc(Cl)ccc1OCC.Cl`, greater than 46.2 µg/mL. As for `COc1cc([N+](=O)[O-])ccc1NC(=O)C1C2C=CC(C2)C1C(=O)O` (stereo not drawn), the figure is greater than 49.8 µg/mL; as for `Cc1ccc(C(=O)COC(=O)c2cccc([N+](=O)[O-])c2)s1`, 7.1 µg/mL (≈ 23.3 µM); as for `Cc1cc(C(=O)NC2=NCCS2)c2ccccc2n1`, greater than 40.7 µg/mL. `O=C(NCCCN1CCCC1=O)c1ccccc1OCc1ccc(Cl)cc1Cl`: the solubility (kinetic) turned out to be 54.7 µg/mL (≈ 130 µM). On to `Cc1ccccc1C(=O)NCC(=O)OC1CCCCC1=O` (stereo not drawn), for which the solubility (kinetic) was greater than 43.4 µg/mL. As for `COc1cccc(/C=C/c2ccccn2)c1O`, the figure is 34 µg/mL (≈ 150 µM).

For `O=C(CSc1cccc[n+]1[O-])c1ccc(Cl)cc1`, the kinetic solubility turned out to be 39.9 µg/mL (≈ 143 µM). The result for `O=C(CN1C(=O)COc2ccccc21)NCCCN1CCOCC1` reads greater than 50 µg/mL; that for `Cc1nc(SCC(=O)N2CCCCCC2)[nH]c(=O)c1C`, greater than 44.3 µg/mL; that for `Cc1cc(C(=O)Nc2ncc(C)s2)c2ccccc2n1`, 18 µg/mL (≈ 63.5 µM).

Molecule `Nn1c(SCC(=O)NCCc2ccc(S(N)(=O)=O)cc2)nnc1C1CCCCC1` returned a solubility (kinetic) greater than 65.8 µg/mL. With `O=C(COc1ccccc1Cl)NCCCNC(=O)c1cnccn1`, the solubility (kinetic) was found to be 51.5 µg/mL (≈ 148 µM). The molecule `Cc1ccc(NC(=O)CCN2C(=O)OC(C)(C)C2(C)O)cc1` (stereo not drawn) showed a solubility (kinetic) of 34 µg/mL (≈ 111 µM). `Cc1cc(C)c(NS(=O)(=O)c2c(C)noc2C)c(C)c1` yielded a kinetic solubility of 33.3 µg/mL (≈ 113 µM). As for `CC(NC(=O)CN(c1ccc(Br)cc1)S(C)(=O)=O)c1ccccc1` (stereo not drawn), the figure is greater than 61.7 µg/mL; as for `N=c1oc2ccccc2cc1C(=O)NCc1ccccc1`, 6.7 µg/mL (≈ 24.1 µM). As for `CC(=O)Nc1ccc(NC(=O)CCCn2cnc3ccccc3c2=O)cc1`, the solubility (kinetic) came out at 49.1 µg/mL (≈ 135 µM). Regarding `Cc1ccnc(NC(=O)CNC(=O)c2ccco2)c1`, the kinetic solubility is greater than 38.9 µg/mL.

The molecule `CCc1nc2sc3c(c2c(=S)[nH]1)CC(C)(C)OC3` gave a kinetic solubility of 1.9 µg/mL (≈ 6.78 µM). As for `Cc1ccc(OCc2cc(C(=O)N3CCCC3)no2)cn1`, the figure is greater than 43.1 µg/mL; as for `CCCc1nnc(SCC(=O)NC2CC2)n1C`, greater than 38.2 µg/mL. Take `COc1ccc(OCCn2ccnc2C)cc1.O=C(O)C(=O)O`: the kinetic solubility turned out to be 41.7 µg/mL. As for `Cc1nccc(-c2ccc3c(c2)OCO3)n1`, the figure is 30.3 µg/mL (≈ 141 µM). As for `COc1ccc(CN2CCc3ccccc3C2)c(OC)c1`, the figure is 29.6 µg/mL (≈ 104 µM); as for `CCC1NC(=O)c2ccccc2N1c1cccc(Cl)c1` (stereo not drawn), 29.8 µg/mL (≈ 104 µM); as for `O=C(Nc1ccccc1C(F)(F)F)c1ccsc1`, greater than 40.7 µg/mL. The result for `CC(=O)N1CCN(C(=O)CCC(=O)O)CC1` reads 30.9 µg/mL (≈ 135 µM). In turn, `CC(=O)c1cccc(NC(=O)C2CC(=O)N(C3CCCC3)C2)c1` (stereo not drawn) registered a kinetic solubility greater than 47.2 µg/mL. Consider `COCCSc1ncnc2c1oc1nc3c(cc12)COC(C)(C)C3`, for which the solubility (kinetic) was 43 µg/mL (≈ 124 µM).

Turning to `O=C(NCCCNC(=O)c1cnccn1)c1cccc(Cl)c1`, the solubility (kinetic) stood at 47.1 µg/mL (≈ 148 µM). Molecule `CNC(=O)c1cc(C(=O)c2ccc(F)cc2Cl)c[nH]1` had a kinetic solubility of 14.1 µg/mL (≈ 50.2 µM).

The molecule `COc1ccccc1CC(=O)NCCN1CCCCC1` yielded a kinetic solubility of 39.3 µg/mL (≈ 142 µM). As to `Cc1ccc(C(=O)Nc2ccccc2Oc2ccccc2)o1`, the solubility (kinetic) is 12.5 µg/mL (≈ 42.6 µM). This solubility kinetic is about 3.1-fold lower than that of the molecule before.

`Fc1cnc(Cl)nc1N1CCN(c2ccccc2)CC1`: the solubility (kinetic) was determined as 17.4 µg/mL (≈ 59.4 µM). The solubility kinetic values of the last two molecules are within 1.5-fold of each other.

Regarding `CCC(C)c1ccc(C(CC)NC(=O)C2CCCO2)cc1` (stereo not drawn), the solubility (kinetic) came to 34.5 µg/mL (≈ 119 µM).

`CCN1CCN(c2ccc(NC(=O)c3ccc(Br)o3)cc2)CC1` yielded a solubility (kinetic) greater than 56.7 µg/mL. Take `Cc1ccc(C)c(NC(=O)C(CC(=O)O)C2CCCO2)c1` (stereo not drawn): the solubility (kinetic) worked out at 40.1 µg/mL (≈ 138 µM). `N#Cc1cccnc1Oc1ccccc1` displayed a kinetic solubility of 25.3 µg/mL (≈ 129 µM). This solubility kinetic lies about 1.6-fold lower than the previous one. As for `NC(=O)CCC(NC(=O)c1ccc(Cl)cc1)C(=O)O` (stereo not drawn), the kinetic solubility is greater than 42.7 µg/mL. Regarding `O=C1OCC(c2ccc(Cl)s2)=C1c1ccccc1[N+](=O)[O-]`, the kinetic solubility came out at 22.3 µg/mL (≈ 69.3 µM). The molecule `CC(=O)c1ccc(NC(=O)CSc2nc3ccccc3c(=O)n2CCCN2CCOCC2)cc1` gave a kinetic solubility greater than 72.1 µg/mL. In turn, `O=C(Nc1ccccc1N1CCOCC1)c1ccco1` came in with a kinetic solubility of 35 µg/mL (≈ 129 µM).

Molecule `N#CC1=C(N)OC2=C(C(=O)CCC2)C1c1cc2c(cc1Cl)OCO2` (stereo not drawn) yielded a solubility (kinetic) of 17 µg/mL (≈ 49.3 µM). Regarding `COc1cc(C(=O)OCCNC(=O)c2cccnc2)cc(OC)c1OC.Cl`, the kinetic solubility was greater than 59.5 µg/mL. With `Cc1ccccc1CC(=O)NCC1CCCCC1`, the solubility (kinetic) turned out to be 12.9 µg/mL (≈ 52.6 µM).

Consider `O=C(COc1ccc([N+](=O)[O-])cc1Cl)N1CCc2ccccc21`, for which the solubility (kinetic) was 2.4 µg/mL (≈ 7.21 µM). This solubility kinetic lies about 5.4-fold lower than the previous one. With `N=C(N)c1ccccc1`, the kinetic solubility is greater than 18 µg/mL. As for `OCCCNC(=S)Nc1ccc2nccnc2c1`, the figure is greater than 39.3 µg/mL; as for `CCOc1ccc(N2CC(C(=O)NCc3ccccc3)CC2=O)cc1` (stereo not drawn), 9.8 µg/mL (≈ 29 µM); as for `COc1ccccc1C(=O)N(Cc1ccccc1)c1ccc(C)cc1`, 24.1 µg/mL (≈ 72.7 µM). As for `CC1Cc2ccccc2N1CC(=O)NC(=O)NC1CCCC1` (stereo not drawn), the solubility (kinetic) stood at 6.9 µg/mL (≈ 22.9 µM). This solubility kinetic is about 3.5-fold lower than that of the molecule before. `CC(C)C(=O)Nc1ccc(NC(=O)c2ccc3c(c2)OCO3)cc1` had a solubility (kinetic) of less than 0.3 µg/mL. Consider `O=C(c1cc2c(s1)CCCC2)N1CCN(c2ccccc2)CC1`, for which the solubility (kinetic) is 1.5 µg/mL (≈ 4.59 µM). The result for `O=C(NCCc1ccccc1)C1CC(=O)N(C2CCCCC2)C1` (stereo not drawn) reads greater than 47.2 µg/mL; that for `O=S(=O)(Nc1ccccc1)c1cccc2nsnc12`, 39.8 µg/mL (≈ 137 µM); that for `COCCn1c(N)c(N(Cc2ccccc2)C(=O)c2cc(=O)[nH]c3ccccc23)c(=O)[nH]c1=O`, greater than 69.2 µg/mL.

Turning to `O=C(O)Cc1c(C(=O)O)[nH]c2ccc(C(=O)O)cc12`, the kinetic solubility is greater than 39.5 µg/mL. Regarding `Cc1cccc(N2CC(C(=O)Nc3nccs3)CC2=O)c1C` (stereo not drawn), the solubility (kinetic) was 42 µg/mL (≈ 133 µM).

Regarding `CCC(=O)c1ccc(OCCn2cnc3ccccc32)cc1.Cl`, the solubility (kinetic) was determined as 43.7 µg/mL. This solubility kinetic and that of the molecule before are within 1.5-fold of each other.

Take `O=C(/C=C/c1ccccc1[N+](=O)[O-])c1ccc(F)cc1`: the kinetic solubility amounted to 4.5 µg/mL (≈ 16.6 µM). The result for `S=C(NCc1ccc(Cl)cc1)N1CCN(c2ccccn2)CC1` reads less than 0.2 µg/mL. For `O=C(COC(=O)c1cccs1)Nc1ccccc1Cl`, the kinetic solubility turned out to be 2.3 µg/mL (≈ 7.78 µM).

For the molecule `CN(C(=O)/C=C/c1ccco1)c1ccccc1C(=O)O`, the kinetic solubility was greater than 40.7 µg/mL.

Molecule `Cc1ccc(NC(=O)N2CCN(C(=O)C3CCCO3)CC2)cc1` (stereo not drawn) showed a kinetic solubility greater than 47.6 µg/mL. On to `O=S(=O)(c1ccc(-c2ccon2)s1)N1CCCC1`, for which the solubility (kinetic) was found to be 11.5 µg/mL (≈ 40.4 µM).

`O=C(NC(=O)c1ccccc1)Nc1cccc(S(=O)(=O)N2CCCCC2)c1`: the kinetic solubility turned out to be 2.2 µg/mL (≈ 5.68 µM).

`COc1cc2nc(Cl)nc(N3CCCCC3)c2cc1OC`: the kinetic solubility was 1.2 µg/mL (≈ 3.9 µM). In the case of `COc1ccc(-c2nc3ncccc3n2O)cc1`, the kinetic solubility is greater than 36.2 µg/mL. For `O=C(COC(=O)CCc1nc2ccccc2c(=O)[nH]1)Nc1ccccc1`, the kinetic solubility is greater than 52.7 µg/mL. `CCCc1nc2cc3c(cc2[nH]1)n(C)c(=O)n3C.Cl` returned a kinetic solubility greater than 42.1 µg/mL. As for `COc1cccc(Nc2nc3ccc(OC)cc3s2)c1`, the figure is 2.8 µg/mL (≈ 9.78 µM); as for `Cn1cc(-c2ccccc2C(=O)O)c(=O)c2cc(Cl)ccc21`, greater than 47.1 µg/mL. As to `C=CCn1c(N)cc(=O)nc1SCC(=O)Nc1ccc(C)cc1`, the kinetic solubility came out at 14.8 µg/mL (≈ 44.8 µM). For the molecule `Cc1ccc(OCC(=O)N2CCc3ccccc32)c([N+](=O)[O-])n1`, the solubility (kinetic) is 1 µg/mL (≈ 3.19 µM). Take `COCC(=O)N(Cc1nc2sc(C)c(C)c2c(=O)[nH]1)C1CCCCC1`: the solubility (kinetic) came out at 47.4 µg/mL (≈ 130 µM).

For the molecule `CC(C)(C)N1CC(C(=O)Nc2ccc(S(N)(=O)=O)cc2)CC1=O` (stereo not drawn), the kinetic solubility is greater than 50.9 µg/mL. Take `Cc1cc(/C=C(\C#N)C(=O)NCc2ccccc2)cc(C)c1O`: the solubility (kinetic) is less than 0.3 µg/mL.

The molecule `CCc1cc2c(=O)n(-c3ccccc3)c(SCC(=O)O)nc2s1` had a kinetic solubility greater than 52 µg/mL. For the molecule `Cc1nc2ccc(NC(=O)N3CCOCC3)cc2nc1C`, the kinetic solubility is greater than 42.9 µg/mL. In turn, `CC12CC3(C)CC(C)(C1)CC(C(=O)NC(=S)N1CCCC1)(C2)C3` gave a kinetic solubility of less than 0.4 µg/mL. In turn, `COc1cccc(C(=O)Nc2c[nH]c(=O)[nH]c2=O)c1` showed a solubility (kinetic) of 36.1 µg/mL (≈ 138 µM). As for `COc1ccc(NC(=O)c2ccco2)cc1NC(=O)c1cccc(F)c1`, the figure is less than 0.4 µg/mL; as for `CCC1CCC(N2CCN(c3ccc(F)cc3)CC2)CC1` (stereo not drawn), 24.1 µg/mL (≈ 83 µM). `CCC(=O)c1cn(CC(=O)Nc2c(C)cccc2C)c2ccccc12` showed a kinetic solubility of less than 0.4 µg/mL. Consider `Cc1cc(C)nc(NC(=O)c2ccc(Cl)c([N+](=O)[O-])c2)n1`, for which the kinetic solubility turned out to be 22.1 µg/mL (≈ 72.1 µM).

`COc1ccc(N2CCN(C(=O)c3cccc(S(=O)(=O)N4CCc5ccccc54)c3)CC2)cc1` gave a kinetic solubility of 7.1 µg/mL (≈ 14.9 µM). As for `Cc1ccc2[nH]cc(/C=C/c3cc[n+](C)cc3)c2c1.[I-]`, the figure is greater than 56.4 µg/mL; as for `CCN(Cc1ccccc1)C(=O)CN1C(=O)c2ccccc2C1=O`, greater than 48.4 µg/mL; as for `Cc1ccc(S(=O)(=O)NC(=O)c2ccccc2C)cc1`, greater than 43.4 µg/mL.

The molecule `O=C(NCc1ccc(F)cc1)C(c1ccccc1)c1ccccc1` gave a solubility (kinetic) of less than 0.7 µg/mL. Take `Cc1ccc(Cn2c(C)nc3ccc([N+](=O)[O-])cc3c2=O)cc1`: the solubility (kinetic) was 1.5 µg/mL (≈ 4.85 µM).

For the molecule `CCOc1ccc(C(C)=O)cc1COC(=O)CNC(=O)C12CC3CC(CC(C3)C1)C2`, the solubility (kinetic) came out at 36.7 µg/mL (≈ 88.8 µM). `Cn1ncc(C(=O)N=S(C)(=O)c2ccccc2)c1[N+](=O)[O-]` (stereo not drawn): the solubility (kinetic) is greater than 46.2 µg/mL.
